Experimental data as given in patent US11878018B1, “Phosphorylation of Syntaxin 17 by TBK1 controls autophagy initiation” (priority 2018, dated 2024).

Assays:
[1] = tested on: Stx17 phosphorylation (Stx17^pS02) by TBK1; experiment: Western blot of Stx17 phosphorylation at Ser-202 in HeLa cells; format: cell-based, human
[2] = tested on: LDH sequestration in autophagosomes, HeLa cells; experiment: LDH (lactate dehydrogenase) sequestration assay; format: cell-based, human; details: WT HeLa cells, EBSS 2 h in presence of bafilomycin A1; 3-methyladenine 10 mM as positive control (FIG. 7N,O)

CC(=O)N[C@H]1C(O)O[C@H](CO)[C@@H](O)[C@@H]1O[C@H](C)C(=O)N[C@@H](C)C(=O)N[C@H](CCC(=O)O)C(N)=O (mixture of isomers) [MDP, muramyl-dipeptide]
Stx17^pS02 band response to agonists of TBK1 ([1]; HeLa cells, Western blot (FIG. 8H), band also detectable in resting cells): responsive

Cn1cnc(N)c2ncnc1-2 [3MA, 3-methyladenine]
LDH (bulk autophagy cargo) sequestration in autophagosomes [2]: reduction in cargo sequestration

O=C(NCCCNc1nc(Nc2cccc(NC(=O)N3CCCC3)c2)ncc1I)c1cccs1 [BX795]
Stx17 phosphorylation (Stx17^pS02) ([1]; cells stimulated with LPS, HeLa WT or TBK1 KO cells, Western blot (FIG. 8I)): inhibited Stx17 phosphorylation | baseline Stx17^pS02 levels ([1]; unstimulated cells, Western blot (FIG. 8I)): reduced the low baseline levels
